{
  "source": "the NIST ThermoML archive (doi:10.1021/acs.jced.9b00362)",
  "key": {"[1]": {"conditions": "Crystal; DSC"}, "[2]": {"assay": "Molar enthalpy of transition or fusion", "conditions": "Crystal; DSC"}},
  "note": "± gives the expanded uncertainty stated by the source.",
  "data": [
    {"molecule": "O=P(O)(O)c1ccccc1", "note": "[phenylphosphonic acid]", "values": [
      {"measurement": "Triple point temperature", "setting": "[1]", "value": "437.53 ± 0.93", "unit": "K"},
      {"measurement": "Molar enthalpy of transition or fusion", "setting": "[2]", "value": "5.72 ± 0.502", "unit": "kcal/mol"}
    ]}
  ]
}
